Measurements reported in patent publication US20240358693A1, “METHODS OF TREATING PAIN” (Aisa Pharma, Inc., priority 2023, published 2024).

System: participants with SSc-RP
Assay: Scleroderma Health Assessment Questionnaire (SHAQ): disability indices and visual analog scales
Format: in vivo, human
Settings: minus = improvement, two weeks of treatment
Description: The standard, validated, patient reported outcome measures tool for SSc patients, the Scleroderma Health Assessment Questionnaire (SHAQ), will be used to assess the participant qualify of life. Details are attached in the Appendix. The participant quality of life will be scored, and a disability index calculated for each questionnaire completed by the patient at Screening and each in-clinic visit. The absolute change in participant quality of life from baseline to the end of each dosing period will be calculated similar to frequency data as before.
The SHAQ includes a Raynaud's VAS, which will be reported at screening and each in-clinic visit. The absolute change in Raynaud-VAS, assessed by the participants response to the SHAQ question ‘In the past 7 days, how much have your Raynaud's interfered with your daily activities?’ at baseline and the end of each dosing period will be calculated similar to frequency data as before.
The SHAQ is used to calculate a Disability Index to assess the participant qualify of life. The eight categories assessed by the Disability Index are 1) dressing and grooming, 2) arising, 3) eating, 4) walking, 5) hygiene, 6) reach, 7) grip, and 8) common daily activities. For each of these categories, patients report the amount of difficulty they have in performing two or three specific activities.
There are four possible responses for the Disability Index questions: • Without any difficulty=0 • With some difficulty=1 • With much difficulty=2 • Unable to do=3. • The highest score reported by the patient for any component question of the eight categories determines the score for that category. • If a component question is left blank or the response is too ambiguous to assign a score, then the score for that category is determined by the remaining completed question(s). • If all component questions are blank or if more than one answer is given, then follow up with the respondent is required. • If the respondent's mark is between the response columns, then move it to the closest one. If it's directly between the two, move it to the higher one.
Each of the disability items on the SHAQ has a companion aids/devices variable that is used to record what type(s) of assistance, if any, the participant uses for his/her usual activities. These variables (see below) are coded as follows: • 0=No assistance is needed. • 1=A special device is used by the patient in his/her usual activities. • 2=The patient usually needs help from another person. • 3=The patient usually needs BOTH a special device AND help from another person.
The scoring variables and scoring rules permit the computation of two disability indices, the Standard Disability Index and the Alternative Disability Index.
This question results in a new set of category scores that are computed by adjusting the score for each category, if necessary, based on the patient's use of an aid or device or assistance for that category. If either devices and/or help from another person are checked for a category, the score is set to “2”, unless the score is already “3” (i.e., scores of “0” or “1” are increased to “2”). For example, if the highest score for the dressing category is “1”, and the patient says they use a device for dressing, the computed category score would be “2”. The sum of the computed categories scores is then calculated and divided by the number of categories answered. This gives a score in the 0 to 3 range.
The aid and device variables are not used to calculate the alternative disability index; it is calculated by adding the scores for each of the categories and dividing by the number of categories answered. This gives a score in the 0 to 3 range.
The standard, validated, patient reported outcome measures tool for SSc patients, the SHAQ, was collected at the time points specified in the study schedules (FIG. 2 and FIGS. 4A and 4B) to assess the participant's quality of life. The SHAQ included a Raynaud's VAS that will also be reported separately.

[1] = Cilnidipine 20 mg n = 3, with Tadalafil 5 mg n = 4

`COCCOC(=O)C1=C(C)NC(C)=C(C(=O)OC/C=C/c2ccccc2)C1c1cccc([N+](=O)[O-])c1` (centres unmarked) [Cilnidipine 20 mg] was tested, and the “SHAQ Alternative Disability Index, mean % change” value [1] was −42%, the “SHAQ Breathing Difficulty, mean % change” value [1] was −73% and the “SHAQ Burden of Fingers Ulcers, mean % change” value [1] was −17%. The “SHAQ Overall Scleroderma, mean % change” value [1] was −63%, the “SHAQ Pain, mean % change” value [1] was −53% and the “SHAQ Raynaud’s Difficulty, mean % change” value [1] was −49%. For the same compound, the “SHAQ Standard Disability Index, mean % change” value [1] was −50% and the “SHAQ Intestinal Difficulty, mean % change (pooled, n = 7)” value (pooled, n = 7) was −45% (pooled,.
